In brackets after ≈: the same amount, converted by molar mass.
What was measured:
in vitro = format: cell-based
Method: Mammalian cell cytotoxicity was assessed to evaluate potential in vivo risks associated with the tetracycline compounds of the invention. A soluble, non-toxic redox dye (“Resazurin”; Alamar Blue) was used to assess a tetracycline compound's effect on cellular metabolism. At the onset of the experiment, cultures of mammalian COS-1 or CHO cells were washed, trypsinized, and harvested. […] On the next day, serial dilutions of test drug were prepared under sterile conditions and transferred to cell plates. Plates were then incubated under the above conditions for 24 hours. Following the incubation period, the media/drug was aspirated, and 50 μL of resazurin was added. Plates were then incubated under the above conditions for 2 hours and then in the dark at room temperature for an additional 30 minutes. Fluorescence measurements were taken (excitation 535 nm, emission 590 nm) and toxic effects in treated versus control cells were compared based on the degree of fluorescence in each well.

[1] = tested on: B. thetaiotaomicron ATCC 29741; test: Antibacterial MIC, CLSI broth microdilution; format: cell-based; details: Bacteroides thetaiotaomicron, ATCC29741; read-out: MIC B. thetaiotaomicron ATCC 29741
Method: Gram (−) and gram (+) antibacterial minimum inhibitory concentration (MIC) values (μg/mL) were obtained using CLSI methodology for anti-bacterial susceptibility testing. On each day of testing, serial dilutions of compounds were prepared in microdilution plates using a Tecan robotic workstation. Mueller Hinton broth cultures of representative sensitive and resistant gram negative strains were grown or adjusted to match the turbidity of a 0.5 McFarland standard. 1:200 dilutions were made in an appropriate broth (cation supplemented Mueller Hinton broth) to allow a final inoculum of 1×10^5 cfu. Plates were incubated at 35° C. in ambient air for 18-24 hours, were read spectrophotometrically and checked manually for evidence of bacterial growth. The lowest dilution of compound that inhibited growth was recorded as the MIC. Lysed horse blood was used to supplement broth for testing S. pneumoniae. The MIC's for each compound were assessed against S. aureus, S. pneumoniae, P. acnes, E. coli and B. theta.

SMILES	IC50 at 24 h (in vitro; African green monkey) [mg/L]	IC50 at 24 h (in vitro; Chinese hamster) [mg/L]	MIC [1] [mg/L]
CCONCc1ccc2c(c1O)C(=O)C1=C(O)[C@]3(O)C(=O)C(C(N)=O)=C(O)[C@@H](N(C)C)[C@@H]3C[C@@H]1C2 [AQ]	< 35	< 35	–
CN(C)[C@@H]1C(O)=C(C(N)=O)C(=O)[C@@]2(O)C(O)=C3C(=O)c4c(O)ccc(CNOCC(F)F)c4C[C@H]3C[C@@H]12 [AR]	< 35	35 to 75 (≈ 66.9 to 143 µM)	–
CN(C)[C@H]1C(O)=C(C(N)=O)C(=O)[C@@]2(O)C(O)=C3C(=O)c4c(O)ccc(CNOCC(F)F)c4C[C@H]3C[C@@H]12 [AS]	> 75	> 75	–
CN(C)[C@@H]1C(O)=C(C(N)=O)C(=O)[C@@]2(O)C(O)=C3C(=O)c4c(O)ccc(CNOCC(F)(F)F)c4C[C@H]3C[C@@H]12 [AT]	< 35	< 35	–
CN(C)[C@H]1C(O)=C(C(N)=O)C(=O)[C@@]2(O)C(O)=C3C(=O)c4c(O)ccc(CNOCC(F)(F)F)c4C[C@H]3C[C@@H]12 [AU]	> 75	> 75	–
CN(C)[C@@H]1C(O)=C(C(N)=O)C(=O)[C@@]2(O)C(O)=C3C(=O)c4c(O)ccc(CN5CCCCO5)c4C[C@H]3C[C@@H]12 [AV]	35 to 75 (≈ 68.2 to 146 µM)	35 to 75 (≈ 68.2 to 146 µM)	–
COC(=O)CONCc1ccc(O)c2c1C[C@H]1C[C@H]3[C@H](N(C)C)C(O)=C(C(N)=O)C(=O)[C@@]3(O)C(O)=C1C2=O [AX]	< 35	< 35	–
CC(C)ONCc1ccc(O)c2c1C[C@H]1C[C@H]3[C@H](N(C)C)C(O)=C(C(N)=O)C(=O)[C@@]3(O)C(O)=C1C2=O [Compound AN, (4S,4aS,5aR,12aS)-4-Dimethylamino-3,10,12,12a-tetrahydroxy-7-(isopropoxyamino-methyl)-1,11-dioxo-1,4,4a,5,5a,6,11,12a-octahydro-naphthacene-2-carboxylic acid amide]	< 35	< 35	–
CN(C)[C@@H]1C(O)=C(C(N)=O)C(=O)[C@@]2(O)C(O)=C3C(=O)c4c(O)ccc(CNOCCF)c4C[C@H]3C[C@@H]12 [Compound AO, (4S,4aS,5aR,12aS)-4-Dimethylamino-7-[(2-fluoro-ethoxyamino)-methyl]-3,10,12,12a-tetrahydroy-1,11-dioxo-1,4,4a,5,5a,6,11,12a-octahydro-naphthacene-2-carboxylic acid amide]	> 75	> 75	–
CON(C)Cc1ccc2c(c1O)C(=O)C1=C(O)[C@]3(O)C(=O)C(C(N)=O)=C(O)[C@@H](N(C)C)[C@@H]3C[C@@H]1C2 [Compound AP]	35 to 75 (≈ 71.8 to 154 µM)	35 to 75 (≈ 71.8 to 154 µM)	4 to 8 (≈ 8.2 to 16.4 µM)
